Laboratory results taken from US5177112A, “Substituted 2-aminotetralins” (Whitby Research, Inc., priority 1991, dated 1993).
Like-named read-outs stand apart in the source and are kept apart here.

How the values were obtained:
ocular function = settings: in vivo; cited from earlier work
intraocular pressure [1] = settings: rabbits; cited from earlier work
intraocular pressure [2] = settings: monkeys; cited from earlier work
D-1 dopamine receptor = target: T1, D-1 dopamine receptor (Bos taurus, UniProt Q95136); test: displacement of tritium labeled SCH 23390 at the D-1 dopamine receptor, striatum membranes; format: binding; settings: bovine brain striatum membranes
T1 construct: membranes isolated from the striatum of bovine brain; from tissue; host or cells: bovine brain striatum membranes
Method: The activity at the D-1 dopamine receptor was tested by the method described in Raisman et al. Eur. J. Pharmacol 113: (1985), pp. 467-468, which utilizeds membranes isolated from the striatum of bovine brain. […] Thus, the 1C50 value for the compound of Example 2 is >100,000 at the D-1 receptor.

D-2 dopamine receptor [3] = target: T2, D-2 dopamine receptor (Bos taurus, UniProt P20288); test: displacement of specific D-2 dopamine receptor binding of tritiated racemic 2-(N-propyl-N-2-thienylethylamino)-5-hydroxytetralin; parameters: homogenates of calf brain corpus striatum; from tissue; host or cells: calf brain corpus striatum homogenate; species or system calf
Method: The pharmacological activity of the product of Example 2 was determined by examining its ability to displace the specific D-2 dopamine receptor binding of a tritium-containing racemic mixture of 2-(N-propyl-N-2-thienylethylamino)-5-hydroxytetralin to homogenates of calf brain corpus striatum.

intraocular pressure [4] = settings: man; eyedrops; cited from earlier work
α2-adrenergic receptors = target: T3, α2-adrenergic receptors (Rattus norvegicus, UniProt P22909); test: α2-adrenergic receptor specific binding, [3H]-Para aminoclonidine
T3 construct: from tissue; host or cells: cerebral cortex membranes of male Sprague Dawley rats
T3 sequence (P22909 1-465): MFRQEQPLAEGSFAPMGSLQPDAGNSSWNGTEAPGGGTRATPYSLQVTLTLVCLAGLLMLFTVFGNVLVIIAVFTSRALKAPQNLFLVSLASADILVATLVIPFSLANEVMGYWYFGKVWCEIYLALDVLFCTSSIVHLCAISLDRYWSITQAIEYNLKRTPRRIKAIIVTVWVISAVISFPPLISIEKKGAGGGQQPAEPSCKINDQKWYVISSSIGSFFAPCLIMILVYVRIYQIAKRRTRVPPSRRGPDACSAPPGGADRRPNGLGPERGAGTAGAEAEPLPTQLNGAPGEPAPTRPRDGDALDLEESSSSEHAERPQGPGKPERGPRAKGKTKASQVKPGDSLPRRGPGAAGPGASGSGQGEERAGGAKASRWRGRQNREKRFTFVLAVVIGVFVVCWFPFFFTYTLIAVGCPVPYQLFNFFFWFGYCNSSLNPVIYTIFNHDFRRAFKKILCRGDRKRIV
Method: (§1) Dopamine receptor assays: Specific binding studies to test the affinity of the compounds for D1, D2 and α2 receptors were conducted using bovine caudate nuclei prepared as follows:
α2-adrenergic receptors assays were conducted using the rat cerebral cortex prepared as follows:
Male Sprague Dawley rats were killed by decapitation and the brains removed. The cerebral cortices were homogenized in 50 mM Tris; 2 mM MgCl2 (pH 7.4), and centrifuged at 40,000×g for 10 minutes. The pellet was washed once, resuspended in Tris/MgCl2 and incubated with 8 units/ml adenosine deaminase at 37° C. for 30 minutes. The homogenate was centrifuged, washed once, resuspended to a protein concentration of 5-10 mg/ml and frozen at -70° C. until use.
(§2) The following tritiated drugs were used as radioligands in the binding studies:
[^3 H]-Para aminoclonidine 48-52 Ci/mmol for α2 -adrenergic receptors.
[^3 H]-paraaminoclonidine was obtained from Amersham, Arlington Heights, Ill. Yohimbine was obtained from Sigma Chemical Co., St. Louis, Mo.
(§3) The radioligands were incubated with various concentrations of competing drug and the appropriate membrane source for 75 minutes at room temperature for D2 receptors, 15 minutes at 37° C. for D1 receptors, or 30 minutes at room temperature for α2 receptors. Specific binding was defined using 1 μM butaclamol (D2), 1 μM SCH23390 (D1), or 1 μM yohimbine (α2). In addition the D2 assays contained 30 nM ketaserin in order to block the binding of ^3 H-spiperone to 5HT2 receptors. The assays were terminated by filtration using a 24-port Brandell cell harvester over filters that had been previously soaked in 0.1% polyethyleneimine, and the filters were washed three times by filtration of cold buffer. […] The results are presented as Ki values if the data were best fitted to a one-site model, or as KH and KL values if a two-site model produced the better fit.

D1 receptors = target: T4, D1 receptors (Bos taurus, UniProt Q95136); test: D1 receptor specific binding, [3H]-SCH23390; parameters: species or system bovine
T4 construct: The caudate nuclei were dissected out and homogenized in Buffer A; from tissue; host or cells: bovine caudate nuclei membranes (brains from a local slaughterhouse)
Method: as §1
(§4) Bovine brains were obtained fresh from a local slaughterhouse. The caudate nuclei were dissected out and homogenized in Buffer A (50 mM Tris; 1 mM Na2 -EDTA; 5 mM KCl; 1 mM MgCl2; 2 mM CaCl2; pH 7.4) using a Brinkman Polytron. The homogenate was centrifuged at 40,000×g for 20 minutes and washed once. The pellett was resuspended in Buffer A, incubated at 37° C. for 15 minutes, then centrifuged. The pellet was washed once more, resuspended to a protein concentration of 5-10 mg/ml in Buffer A and frozen at -70° C. until used.
as §2
(§5) [^3 H]-spiperone, [^3 H]-SCH22390, and [^3 H]-ketanserin were obtained from New England Nuclear, Boston, Me.
as §3

D2 receptors = target: T5, D2 receptors (Bos taurus, UniProt P20288); test: D2 receptor specific binding, [3H]-Spiperone; parameters: species or system bovine; settings: for Ki: bovine caudate nuclei, [3H]-Spiperone, 30 nM ketanserin, 75 minutes at room temperature; for increase in selectivity for D2 receptors: compared to the thienyl compound
T5 construct: The caudate nuclei were dissected out and homogenized in Buffer A; from tissue; host or cells: bovine caudate nuclei membranes (brains from a local slaughterhouse)
Method: as §1, §4, §2
[^3 H]-Spiperone 21-24 Ci/mmol for D2 receptors
as §5, §3

D-2 dopamine receptor [5] = target: T2, D-2 dopamine receptor; settings: stated for contrast, no test data given; cited from earlier work
[6] = rat cerebral cortex, [3H]-Para aminoclonidine, 30 minutes at room temperature, read-out: Ki α2
[7] = bovine caudate nuclei, [3H]-SCH23390, 15 minutes at 37° C., read-out: Ki D1

T2 sequence (P20288 whole entry): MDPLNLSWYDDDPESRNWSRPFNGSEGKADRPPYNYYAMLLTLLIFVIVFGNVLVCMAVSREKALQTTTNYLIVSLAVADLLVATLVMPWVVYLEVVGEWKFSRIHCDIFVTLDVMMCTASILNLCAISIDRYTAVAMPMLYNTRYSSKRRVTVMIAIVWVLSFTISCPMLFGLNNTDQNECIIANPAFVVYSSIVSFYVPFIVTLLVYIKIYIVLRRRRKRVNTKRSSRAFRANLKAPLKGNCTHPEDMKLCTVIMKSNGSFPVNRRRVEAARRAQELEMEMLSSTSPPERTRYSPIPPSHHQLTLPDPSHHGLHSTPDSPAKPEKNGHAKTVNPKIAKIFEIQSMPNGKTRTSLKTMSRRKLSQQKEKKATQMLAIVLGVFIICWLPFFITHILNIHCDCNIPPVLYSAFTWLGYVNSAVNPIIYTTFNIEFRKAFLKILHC
T5 sequence (P20288 whole entry): as above
T4 sequence (Q95136 whole entry): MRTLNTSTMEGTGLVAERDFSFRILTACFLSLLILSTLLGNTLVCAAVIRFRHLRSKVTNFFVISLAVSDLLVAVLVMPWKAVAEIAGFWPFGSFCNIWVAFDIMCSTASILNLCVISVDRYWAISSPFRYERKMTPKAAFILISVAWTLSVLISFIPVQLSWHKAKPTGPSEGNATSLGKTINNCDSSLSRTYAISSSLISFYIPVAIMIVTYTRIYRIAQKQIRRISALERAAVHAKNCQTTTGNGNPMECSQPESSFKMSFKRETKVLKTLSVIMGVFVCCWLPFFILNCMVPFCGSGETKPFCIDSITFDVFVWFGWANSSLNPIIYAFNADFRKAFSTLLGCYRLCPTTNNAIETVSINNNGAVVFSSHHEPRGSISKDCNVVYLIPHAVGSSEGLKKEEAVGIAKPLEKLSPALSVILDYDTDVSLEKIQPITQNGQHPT
T1 sequence (Q95136 whole entry): as above

## CCCN(CCC)CCc1ccc(O)c(O)c1 [N,N-di-n-propyldopamine]
Ocular function
  alteration of ocular function: may alter ocular function

## CNCCc1ccc(O)c(O)c1 [N-methyldopamine]
Ocular function
  alteration of ocular function: may alter ocular function
  mechanism: aqueous humor formation: suppressing aqueous humor formation

## CCCN1C[C@H](CSC)C[C@@H]2c3cccc4[nH]cc(c34)C[C@H]21 [pergolide]
Intraocular pressure [1]
  intraocular pressure: lower the intraocular pressure of rabbits
Intraocular pressure [2]
  intraocular pressure: lowered the intraocular pressure of monkeys

## CCCN(CCc1cc2ccccc2s1)C1CCc2c(O)cccc2C1 (centres unmarked) [Example 2, 2-(N-n-propyl-N-2-[2-benzothienyl]ethylamino)-5-hydroxytetralin]
D-1 dopamine receptor; D-1, tritium labeled SCH 23390, read-out: 1C50 value at the D-1 receptor
  IC50: > 100000 nM
D-1 dopamine receptor; concentration range 10^-11 to 10^-4 moles
  displacement of tritium labeled SCH 23390: did not displace
D-2 dopamine receptor [3]; D-2, calf brain corpus striatum homogenates, read-out: IC50 (concentration of drug required to inhibit the binding of labelled drug by 50 percent)
  IC50: 0.56 nM
D-2 dopamine receptor [3]; comparison of D-2 and D-1 binding
  D-2 as opposed to D-1 binding selectivity: extremely selective D-2 as opposed to D-1 binding

## CC(C)C[C@H]1C(=O)N2CCC[C@H]2[C@]2(O)O[C@](NC(=O)[C@@H]3C=C4c5cccc6[nH]c(Br)c(c56)C[C@H]4N(C)C3)(C(C)C)C(=O)N12 [bromocriptine]
Intraocular pressure [1]
  intraocular pressure: lower the intraocular pressure of rabbits
Intraocular pressure [4]
  intraocular pressure: may lower intraocular pressure

## CCCN(CCc1cccs1)C1CCc2c(O)cccc2C1 (centres unmarked)
α2-adrenergic receptors
  Ki: 190 nM
D1 receptors
  Ki: 1000 nM
D2 receptors
  Ki: 110 nM

## CN(C)CCc1ccc(O)c(O)c1 [N,N-dimethyl-dopamine]
Ocular function
  alteration of ocular function: may alter ocular function

## CCCN(CCc1cccs1)C1CCc2c(O)cccc2C1 (racemic) [2-(N-propyl-N-2-thienylethylamino)-5-hydroxytetralin]
D-2 dopamine receptor [3]
  Kd: 1.6 nM
D-2 dopamine receptor [3]; tritium-containing racemic mixture, calf brain corpus striatum homogenates
  bmax: 26.0 picomoles/gm

## CN1CCc2cccc3c2[C@H]1Cc1ccc(O)c(O)c1-3 [apomophine]
D-2 dopamine receptor [5]
  binding at the D-1 and D-2 receptor (comparison substances): substantially equivalent binding at the D-1 and D-2 receptor

## CCCN(CCc1csc2ccccc12)C1CCc2c(O)cccc2C1 (centres unmarked)
α2-adrenergic receptors; [6]
  Ki: 250 nM
D1 receptors; [7]
  Ki: 1950 nM
D2 receptors
  Ki: 130 nM
  increase in selectivity for D2 receptors: two-fold

## CN1C[C@H](CC#N)C[C@@H]2c3cccc4[nH]c(Cl)c(c34)C[C@H]21 [lergotrile]
Intraocular pressure [1]
  intraocular pressure: lower the intraocular pressure of rabbits
Intraocular pressure [2]
  intraocular pressure: lowered the intraocular pressure of monkeys

## CCCN(CCc1ccc2ccccc2c1)C1CCc2c(O)cccc2C1 (centres unmarked)
α2-adrenergic receptors; [6]
  Ki: 2500 nM
D1 receptors; [7]
  Ki: 6460 nM
D2 receptors
  Ki: 80 nM
  increase in selectivity for D2 receptors: six and a half-fold

## NCCc1ccc(O)c(O)c1 [dopamine]
D-2 dopamine receptor [5]
  binding at the D-1 and D-2 receptor (comparison substances): substantially equivalent binding at the D-1 and D-2 receptor
